Laboratory results reported in US8691757B2 (Bristol-Myers Squibb Company, priority 2011, dated 2014).

Legend:
[1] = test system: HCV genotype 1b (Con1) replicon in HUH-7 cells; assay: HCV replicon luciferase reporter assay, genotype 1b; format: cell-based; details: Hepatitis C virus, 72 h, HCV genotype 1b replicon, 3 days incubation, Renilla luciferase
Excerpt: An HCV replicon whole cell system was established as described by Lohmann V, Korner F, Koch J, Herian U, Theilmann L, Bartenschlager R., Science 285(5424):110-3 (1999) and modified to introduce a luciferase reporter, as first described by Krieger et al (Krieger N, Lohmann V, and Bartenschlager R, J. Virol. 75(10):4614-4624 (2001)). CDNA encoding a humanized form of the Renilla luciferase gene and a linker sequence fused directly to the 3′-end of the luciferase gene were introduced into the replicon construct using an Asc1 restriction site located in core, directly upstream of the neomycin marker gene. The adaptive mutation at position 1179 (serine to isoleucine) was also introduced (Blight K J, Kolykhalov, A A, Rice, C M, Science 290(5498):1972-1974). A stable cell line constitutively expressing this HCV replicon construct was generated by first linearizing plasmid DNAs with ScaI. RNA transcripts were synthesized in vitro using the T7 MegaScript transcription kit (Ambion, Austin, Tex.) according to manufacturer's directions. In vitro transcripts of the cDNA were transfected into the human hepatoma cell line, HUH-7. […] Resulting cell lines were characterized for positive and negative strand RNA production and protein production over time. […]
(§1) HCV replicon luciferase assays were developed to monitor the inhibitory effects of compounds described in the disclosure on HCV genotypes 1a and 1b viral replication. HUH-7 cells, constitutively expressing the HCV replicon, were grown in Dulbecco's Modified Eagle Media (DMEM) (Gibco-BRL) containing 10% Fetal calf serum (FCS) (Sigma) and 1 mg/mL G418 (Gibco-BRL). Compounds were serially diluted 3 folds in DMSO for a twenty-point titration and subsequently transferred to sterile 384-well tissue-culture treated plates (Corning cat #3571). The plates were then seeded with 50 μL of cells at a density of 3.0×10^3 cells/well in DMEM containing 4% FCS (final DMSO concentration at 0.5%). After 3 days incubation at 37° C., cells were analyzed for Renilla Luciferase activity using the EnduRen as substrate (Promega cat #E6485). The EnduRen substrate was diluted in DMEM and then added to the plates to a final concentration of 7.5 μM. The plates were incubated for 2 hrs at 37° C. and then read immediately for 30 seconds with Viewlux Imager (PerkinElmer) using a luminescence program. To assess cytotoxicity of compounds, CC50 values were generated by multiplexing the EnduRen-containing plates with Cell Titer-Blue (Promega, cat #G8082). Cell-Titer Blue (3 μL) was added to each well and incubated for 8 hrs at 37° C. The fluorescence signal from each well was read, with an excitation wavelength at 525/10 nm and an emission wavelength of 598/10 nm, using the Viewlux Imager.
(§2) The EC50 values for compounds were calculated by using a four-parameter logistic equation: y=A+((B−A)/(1+((C/x)^D))), where A and B denotes minimal and maximal % inhibition, respectively, C is the EC50, D is the hill slope and x represents compound concentration.

[2] = test system: HCV genotype 1a (H77 strain) replicon in HUH-7 cells; assay: HCV replicon luciferase reporter assay, genotype 1a; format: cell-based; details: Hepatitis C virus, 72 h, HCV genotype 1a replicon, 3 days incubation, Renilla luciferase
Excerpt: An HCV replicon whole cell system was established as described by Lohmann V, Korner F, Koch J, Herian U, Theilmann L, Bartenschlager R., Science 285(5424):110-3 (1999) and modified to introduce a luciferase reporter, as first described by Krieger et al (Krieger N, Lohmann V, and Bartenschlager R, J. Virol. 75(10):4614-4624 (2001)). CDNA encoding a humanized form of the Renilla luciferase gene and a linker sequence fused directly to the 3′-end of the luciferase gene were introduced into the replicon construct using an Asc1 restriction site located in core, directly upstream of the neomycin marker gene. The adaptive mutation at position 1179 (serine to isoleucine) was also introduced (Blight K J, Kolykhalov, A A, Rice, C M, Science 290(5498):1972-1974). A stable cell line constitutively expressing this HCV replicon construct was generated by first linearizing plasmid DNAs with ScaI. RNA transcripts were synthesized in vitro using the T7 MegaScript transcription kit (Ambion, Austin, Tex.) according to manufacturer's directions. In vitro transcripts of the cDNA were transfected into the human hepatoma cell line, HUH-7. […] Resulting cell lines were characterized for positive and negative strand RNA production and protein production over time.
A stable HCV replicon luciferase reporter cell line representing the genotype 1a H77 strain (Yanagi M, Purcell R H, Emerson S U, et al. Transcripts from a single full-length cDNA clone of hepatitis C virus are infectious when directly transfected into the liver of a chimpanzee. Proc Natl Acad Sci USA 1997; 94(16):8738-8743) was generated as described previously for the genotype 1b (Con1) replicon luciferase cell line. The replicon construct was modified by introducing mutations were introduced into the genes encoding the NS3 helicase domain (proline replaced by leucine at position 1496) and NS5A (serine to isoleucine at position 2204) to improve replication in cell culture.
as §1, §2

COc1ccc2c(O[C@@H]3C[C@H]4C(=O)N[C@]5(C(=O)NS(=O)(=O)C6(CF)CC6)C[C@H]5/C=C\[C@@H](C)CCC[C@@H](C)[C@H](NC(=O)OC(C)(C)C(F)(F)F)C(=O)N4C3)ncc(OC)c2c1 [Compound 13]
EC50 ([1]; range classes): 2.01 to 5 nM
EC50 ([2]; range classes): 5.01 to 68 nM

COc1cnc(O[C@@H]2C[C@H]3C(=O)N[C@]4(C(=O)NS(=O)(=O)C5CC5)C[C@H]4/C=C\[C@H](C)CCC[C@@H](C)[C@H](NC(=O)OC(C)(C)C(F)(F)F)C(=O)N3C2)c2cc(F)ccc12 [Compound 24, 1,1,1-trifluoro-2-methylpropan-2-yl (2R,6S,7R,11R,13aS,14aR,16aS,Z)-14a-(cyclopropylsulfonylcarbamoyl)-2-(7-fluoro-4-methoxyisoquinolin-1-yloxy)-7,11-dimethyl-5,16-dioxo-1,2,3,5,6,7,8,9,10,11,13a,14,14a,15,16,16a-hexadecahydrocyclopropa[e]pyrrolo[1,2-a][1,4]diazacyclopentadecin-6-ylcarbamate]
EC50 ([1]; range classes): 5.01 to 68 nM
EC50 ([2]; range classes): 5.01 to 68 nM

COc1cnc(O[C@@H]2C[C@H]3C(=O)N[C@]4(C(=O)NS(=O)(=O)C5(C)CC5)C[C@H]4/C=C\[C@H](C)CCC[C@@H](C)[C@H](NC(=O)OC(C)(C)C(F)(F)F)C(=O)N3C2)c2ccccc12 [Compound 35, 1,1,1-trifluoro-2-methylpropan-2-yl (2R,6S,7R,11R,13aS,14aR,16aS,Z)-2-(4-methoxyisoquinolin-1-yloxy)-7,11-dimethyl-14a-(1-methylcyclopropylsulfonylcarbamoyl)-5,16-dioxo-1,2,3,5,6,7,8,9,10,11,13a,14,14a,15,16,16a-hexadecahydrocyclopropa[e]pyrrolo[1,2-a][1,4]diazacyclopentadecin-6-ylcarbamate]
EC50 ([1]; numeric values): 0.51 nM
EC50 ([2]; numeric values): 1.96 nM

COc1cnc(O[C@@H]2C[C@H]3C(=O)N[C@]4(C(=O)NS(=O)(=O)C5CC5)C[C@H]4/C=C\[C@H](C)CCC[C@@H](C)[C@H](NC(=O)OC(C)(C)C)C(=O)N3C2)c2cc(F)ccc12 [Compound 23, tert-butyl (2R,6S,7R,11R,13aS,14aR,16aS,Z)-14a-(cyclopropylsulfonylcarbamoyl)-2-(7-fluoro-4-methoxyisoquinolin-1-yloxy)-7,11-dimethyl-5,16-dioxo-1,2,3,5,6,7,8,9,10,11,13a,14,14a,15,16,16a-hexadecahydrocyclopropa[e]pyrrolo[1,2-a][1,4]diazacyclopentadecin-6-ylcarbamate]
EC50 ([1]; range classes): 5.01 to 68 nM
EC50 ([2]; range classes): 5.01 to 68 nM

COc1ccc2c(O[C@@H]3C[C@H]4C(=O)N[C@]5(C(=O)NS(=O)(=O)C6CC6)C[C@H]5/C=C\[C@H](C)CCC[C@@H](C)[C@H](NC(=O)OC(C)(C)C)C(=O)N4C3)ncc(OC)c2c1 [Compound 21, tert-butyl (2R,6S,7R,11R,13aS,14aR,16aS,Z)-14a-(cyclopropylsulfonylcarbamoyl)-2-(4,6-dimethoxyisoquinolin-1-yloxy)-7,11-dimethyl-5,16-dioxo-1,2,3,5,6,7,8,9,10,11,13a,14,14a,15,16,16a-hexadecahydrocyclopropa[e]pyrrolo[1,2-a][1,4]diazacyclopentadecin-6-ylcarbamate]
EC50 ([1]; range classes): 0.2 to 1 nM
EC50 ([2]; range classes): 1.01 to 2 nM

COc1cnc(O[C@@H]2C[C@H]3C(=O)N[C@]4(C(=O)NS(=O)(=O)C5CC5)C[C@H]4/C=C\[C@@H](C)CCC[C@@H](C)[C@H](NC(=O)OC(C)(C)C)C(=O)N3C2)c2cccc(Cl)c12 [Compound 6, tert-butyl (2R,6S,7R,11S,13aS,14aR,16aS,Z)-2-(5-chloro-4-methoxyisoquinolin-1-yloxy)-14a-(cyclopropylsulfonylcarbamoyl)-7,11-dimethyl-5,16-dioxo-1,2,3,5,6,7,8,9,10,11,13a,14,14a,15,16,16a-hexadecahydrocyclopropa[e]pyrrolo[1,2-a][1,4]diazacyclopentadecin-6-ylcarbamate]
EC50 ([1]; range classes): 2.01 to 5 nM
EC50 ([2]; range classes): 1.01 to 2 nM

COc1ccc2ncc(O[C@@H]3C[C@H]4C(=O)N[C@]5(C(=O)NS(=O)(=O)C6CC6)C[C@H]5/C=C\[C@@H](C)CCC[C@@H](C)[C@H](NC(=O)OC(C)(C)C)C(=O)N4C3)nc2c1 [Compound 29, tert-butyl (2R,6S,7R,11S,13aS,14aR,16aS,Z)-14a-(cyclopropylsulfonylcarbamoyl)-2-(7-methoxyquinoxalin-2-yloxy)-7,11-dimethyl-5,16-dioxo-1,2,3,5,6,7,8,9,10,11,13a,14,14a,15,16,16a-hexadecahydrocyclopropa[e]pyrrolo[1,2-a][1,4]diazacyclopentadecin-6-ylcarbamate]
EC50 ([1]; range classes): 5.01 to 68 nM
EC50 ([2]; range classes): 5.01 to 68 nM

COc1ccc2nc(O[C@@H]3C[C@H]4C(=O)N[C@]5(C(=O)NS(=O)(=O)C6CC6)C[C@H]5/C=C\[C@H](C)CCC[C@@H](C)[C@H](NC(=O)OC(C)(C)C(F)(F)F)C(=O)N4C3)cnc2c1 [Compound 32, 1,1,1-trifluoro-2-methylpropan-2-yl (2R,6S,7R,11R,13aS,14aR,16aS,Z)-14a-(cyclopropylsulfonylcarbamoyl)-2-(6-methoxyquinoxalin-2-yloxy)-7,11-dimethyl-5,16-dioxo-1,2,3,5,6,7,8,9,10,11,13a,14,14a,15,16,16a-hexadecahydrocyclopropa[e]pyrrolo[1,2-a][1,4]diazacyclopentadecin-6-ylcarbamate]
EC50 ([1]; range classes): 5.01 to 68 nM
EC50 ([2]; range classes): 5.01 to 68 nM

C[C@@H]1CCC[C@@H](C)/C=C\[C@@H]2C[C@@]2(C(=O)NS(=O)(=O)C2CC2)NC(=O)[C@@H]2C[C@@H](Oc3nccc4ccccc34)CN2C(=O)[C@H]1NC(=O)OC(C)(C)C(F)(F)F [Compound 34, 1,1,1-trifluoro-2-methylpropan-2-yl (2R,6S,7R,11R,13aS,14aR,16aS,Z)-14a-(cyclopropylsulfonylcarbamoyl)-2-(isoquinolin-1-yloxy)-7,11-dimethyl-5,16-dioxo-1,2,3,5,6,7,8,9,10,11,13a,14,14a,15,16,16a-hexadecahydrocyclopropa[e]pyrrolo[1,2-a][1,4]diazacyclopentadecin-6-ylcarbamate]
EC50 ([1]; range classes): 0.2 to 1 nM
EC50 ([2]; range classes): 2.01 to 5 nM

COc1ccc2ncc(O[C@@H]3C[C@H]4C(=O)N[C@]5(C(=O)NS(=O)(=O)C6CC6)C[C@H]5/C=C\[C@@H](C)CCC[C@@H](C)[C@H](NC(=O)OC(C)(C)C(F)(F)F)C(=O)N4C3)nc2c1 [Compound 31, 1,1,1-trifluoro-2-methylpropan-2-yl (2R,6S,7R,11S,13aS,14aR,16aS,Z)-14a-(cyclopropylsulfonylcarbamoyl)-2-(7-methoxyquinoxalin-2-yloxy)-7,11-dimethyl-5,16-dioxo-1,2,3,5,6,7,8,9,10,11,13a,14,14a,15,16,16a-hexadecahydrocyclopropa[e]pyrrolo[1,2-a][1,4]diazacyclopentadecin-6-ylcarbamate]
EC50 ([1]; range classes): 5.01 to 68 nM
EC50 ([2]; range classes): 5.01 to 68 nM
